Columns and labels:
[1] = system: SV40-DNA amplification in SV40 transformed embryonic CO631 hamster cells; test: SV40-DNA gene amplification system in SV40-transformed hamster cells; type: cell-based, Chinese Hamster; settings: for effect on SV40 gene amplification: model substance given alone, FIGS. 1 to 3
Description: To investigate the amplification phenomena, a hamster cell strain is used which contains a virus (simian virus 40) integrated in the genome. It is known for this cell strain that an addition of genotoxic substances, but also various “non-genotoxic” carcinogens and tumor inducers, leads to amplification of SV40-DNA in the hamster genome. The method is based on the fact that marked SV40-DNA with hamster cell-DNA containing SV40-DNA in an amplified number, serving as a probe, is hybridized. The quantity of bound probe gives an insight into the degree of amplification of the integrated virus-DNA.
In order to determine the degree of amplification, the albumin-gene-DNA is measured simultaneously with the SV40-DNA. The albumin-gene, as opposed to SV40-DNA, is not amplified in the cell. Accordingly the value of the relative SV40-DNA content results from the quotient of the signal of the DNA probe hybridized with SV40-DNA to the signal of the DNA probe hybridized with albumin gene from the same SV40 transformed embryonic CO631 hamster cells.
The effect of the above named model substances alone or in combination with a carcinogen is tested in the gene amplification system.

[2] = system: Saccharomyces cerevisiae MP1; test: Recombination / mutation experiments with yeast; type: cell-based; settings: for anti-recombinogenic effects in Saccharomyces cerevisiae MP1: FIGS. 11 and 12
[3] = system: tumor cell strain F46-WT of the mouse
Protocol: The formation of resistance is based on the amplification of the MDR gene. This is indicated with the aid of the Northern Blotting Technique, a method for indicating RNA molecules, i.e., the transcription of a gene, using the MDR gene as a probe (FIG. 10).
The tumor cell strain F4-6-WT of the mouse (WT=wild type=sensitive to cytostatic treatment=no amplification of the MDR gene) is treated over several weeks with staged increases in concentration of adriamycin. […] The formation of resistance is based on the amplification of the MDR gene. This is indicated with the aid of the Northern Technique, a method for indicating RNA molecules, i.e., the transcription of a gene, using the MDR gene as a probe (FIG. 15). […] The levels of β-actin MRNA are likewise analyzed as comparison. β-actin is used as an internal control for the RNA quantity.
In parallel experiments, adriamycin is administered with 1 μg/ml of a respective 5′ substituted nucleoside.

[4] = system: human tumor cell strain K562-WT; settings: FIG. 8
MDR gene in F46-WT cells = test: Northern Blot analysis of RNA with the MDR gene as probe; type: cell-based, mouse; settings: BVDU+adriamycin treatment, FIG. 10
Description: Expression of the MDR genes in the tumor cell strain F4-6WT of the mouse.

## CC(=N)S [thioacetamide]
[1]
  effect on SV40 gene amplification: increase the SV40 gene amplification

## CCCCCCCCCCCCCC(=O)O[C@@H]1[C@@H](C)[C@@]2(O)[C@@H](C=C(CO)C[C@]3(O)C(=O)C(C)=C[C@@H]23)[C@H]2C(C)(C)[C@]12OC(C)=O [TPA, 12-0-tetradecanoyl-phorbol-13-acetate]
[1]
  effect on SV40 gene amplification: increase the SV40 gene amplification

## O=c1ccc2ccccc2o1 [coumarin]
[1]
  effect on SV40 gene amplification: increase the SV40 gene amplification

## CN(C)C=O [dimethylfornamide, dimethylformamide]
[1]
  effect on SV40 gene amplification: no effect

## O=c1[nH]c(=O)n([C@H]2C[C@H](O)[C@@H](CO)S2)cc1/C=C/Br [(E)-5(2-bromovinyl-2′-deoxy-4′-thiouridine]
[2]
  anti-recombinogenic effects in Saccharomyces cerevisiae MP1: anti-recombinogenic effects

## O=c1[nH]c(=O)n([C@H]2C[C@H](O)[C@@H](CO)O2)cc1I [5-iodo-2′-deoxyuridine]
[2]
  anti-recombinogenic effects in Saccharomyces cerevisiae MP1: anti-recombinogenic effects

## CC(N)=O [acetamide]
[1]
  effect on SV40 gene amplification: increase the SV40 gene amplification

## COc1cccc2c1C(=O)c1c(O)c3c(c(O)c1C2=O)C[C@@](O)(C(=O)CO)C[C@@H]3O[C@H]1C[C@H](N)[C@H](O)[C@H](C)O1 [adriamycin]
[3]; 20 ng/ml adriamycin, F46-WT, FIGS. 9, 13, 14
  sensitivity of cells after long term treatment with staged increase in concentration: totally insensitive
[4]; 20 ng/ml adriamycin, K562-WT
  sensitivity of cells after long term treatment with staged increase in concentration: totally insensitive
[4]; 20 ng/ml adriamycin, treatment time 4 days, K562-WT
  toxic effect on non-resistant cells: severely toxic effect

## C=C(C)[C@@]12O[C@@]3(c4ccccc4)O[C@@H]1[C@@H]1[C@@H]4O[C@]4(CO)[C@@H](O)[C@]4(O)C(=O)C(C)=C[C@H]4[C@@]1(O3)[C@H](C)[C@H]2OC(=O)/C=C/C=C/c1ccccc1 [mezerein]
[1]
  effect on SV40 gene amplification: increase the SV40 gene amplification

## O=c1[nH]c(=O)n([C@@H]2O[C@H](CO)[C@@H](O)[C@@H]2O)cc1/C=C/Br [(E)-5-(2-bromovinyl)-1-β-D-arabinofuranosyl-uracil]
[2]
  anti-recombinogenic effects in Saccharomyces cerevisiae MP1: anti-recombinogenic effects

## C1CN1c1nc(N2CC2)nc(N2CC2)n1 [TEM, Triethylenmelamin]
[1]
  effect on SV40 gene amplification: increase the SV40 gene amplification

## O=c1[nH]c(=O)n([C@H]2C[C@H](O)[C@@H](CO)O2)cc1/C=C/Br [BVDU, (E)-5-(2-bromovinyl-)2′-deoxyuridine]
[1]; BVDU alone, repeat experiment, FIG. 6
  effect on spontaneous degree of amplification: slightly to lessen the spontaneous degree of amplification
[1]; with S9-mix, lower dose range than without S9-mix, FIG. 7
  effect on AMP-induced gene amplification: lowering of AMP-induced gene amplification
[1]; without S9-mix, FIG. 5
  concentration at which inhibition of AMP-induced gene amplification starts: about 0.05 μg/ml
[1]; without S9-mix, dose dependent, FIG. 5
  concentration leading to total inhibition of the AMP-induced gene amplification: 5 µg/mL
[2]
  anti-recombinogenic effects in Saccharomyces cerevisiae MP1: anti-recombinogenic effects
[2]; with and without S9-mix, FIG. 4
  effect on mutation in yeast: co-mutagenic
[2]; with and without liver microsomes (S9-mix), more visible and at lower concentration with S9-mix, FIG. 4
  effect on recombination in yeast: anti-recombinogenic
[3]; 0.5 or 1 μg/ml BVDU given together with adriamycin, F46-WT, 6 to 8 weeks, FIG. 9
  formation of resistance to adriamycin: prevents the formation of resistance to adriamycin
[3]; mouse cells, FIG. 9
  concentration from which BVDU acts in a toxic manner: about 8 μg/ml
MDR gene in F46-WT cells
  amplification of the MDR gene compared with adriamycin treatment alone: considerably weaker amplification of the MDR gene
[4]; 0.5 or 1 μg/ml BVDU given together with adriamycin, K562-WT, 6 to 8 weeks
  formation of resistance to adriamycin: prevents the formation of resistance to adriamycin
[4]; human tumor cells
  concentration from which BVDU acts in a toxic manner: about 10 μg/ml

## C[C@]12CC[C@H]3[C@@H](CCC4=CC(=O)CC[C@@]43C)[C@@H]1CC[C@@H]2O [testosterone]
[1]; with S9-mix, FIG. 3
  effect on the amplifying effect of methotrexate (MTX): reduces the amplifying effect of methotrexate (MTX)
[1]; without S9-mix, FIG. 3
  effect on the amplifying effect of amino-6-mercaptopurine (AMP): increases the amplifying effect of amino-6-mercaptopurine (AMP)

## Nc1nc(=O)n([C@H]2C[C@H](O)[C@@H](CO)O2)cc1I [5-iodo-2′-deoxycytidine]
[2]
  anti-recombinogenic effects in Saccharomyces cerevisiae MP1: anti-recombinogenic effects

## CC(C)=O [acetone]
[1]
  effect on SV40 gene amplification: no effect
